Source: patent publication US20240247080A1, “GLP1/GIP/NPY2 RECEPTOR TRIPLE AGONISTS” (Boehringer Ingelheim International GmbH, priority 2022, published 2024)
Where two headings read alike, the source gives them in different places. Starred links: 1 amine or outer side, 2 acyl side, 3 side chain; linkers in the order of their positions; H or OH if unused. Non-standard residues stand in square brackets, D forms with d. Groups on a side chain read outwards from the residue. *: point of attachment. C20 diacid = O=C(O)CCCCCCCCCCCCCCCCCCC(=O)*; C18 diacid = O=C(O)CCCCCCCCCCCCCCCCC(=O)*; γGlu = O=C(O)[C@H](CCC(=O)[*:2])N[*:1]; εLys = N[C@@H](CCCCN[*:1])C(=O)[*:2]; NMeR = CN[C@@H](CCCNC(=N)N)C(=O)O; β3hQ = NC(=O)CC[C@H](N)CC(=O)O; AEEA = NCCOCCOCC(=O)O; Aib = CC(C)(N)C(=O)O

What was measured:
Format in all cases: cell-based
[1] = target: T1, hGLP1R (Homo sapiens, UniProt P43220); assay: hGLP1R CreLuc reporter gene assay in 0.5% and 100% plasma
T1 construct: expressed in transfected cells; host or cells: HEK-293 cells carrying a CRE-luciferase reporter gene
T1 sequence (P43220 24-463): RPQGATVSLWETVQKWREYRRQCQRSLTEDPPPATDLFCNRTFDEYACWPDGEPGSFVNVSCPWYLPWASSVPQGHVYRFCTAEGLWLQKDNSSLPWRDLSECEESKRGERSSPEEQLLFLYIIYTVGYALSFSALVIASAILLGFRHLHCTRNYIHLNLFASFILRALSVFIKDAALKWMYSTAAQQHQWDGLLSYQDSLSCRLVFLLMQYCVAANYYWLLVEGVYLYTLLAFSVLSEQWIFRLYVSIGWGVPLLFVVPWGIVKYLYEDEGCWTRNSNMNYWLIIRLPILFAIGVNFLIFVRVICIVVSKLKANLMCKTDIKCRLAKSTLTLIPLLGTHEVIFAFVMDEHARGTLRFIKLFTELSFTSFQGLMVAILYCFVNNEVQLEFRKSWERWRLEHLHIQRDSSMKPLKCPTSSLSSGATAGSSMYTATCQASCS
How it was run: (§1)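 HEK cells (GLP-1R, NPY2R) or CHO cells (GIPR) carrying a CRE-luciferase reporter, incubated 4 h at 37 °C with peptides in HBSS/20 mM HEPES pH 7.4 plus 0.5% human plasma, or in 100% plasma. Luminescence read; EC50 from 8-point variable-slope sigmoid fits.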

[2] = target: T2, hGIPR (Homo sapiens, UniProt P48546); assay: hGIPR CreLuc reporter gene assay in 0.5% and 100% plasma
T2 construct: expressed in transfected cells; host or cells: CHO cells carrying a CRE-luciferase reporter gene
T2 sequence (P48546 22-466): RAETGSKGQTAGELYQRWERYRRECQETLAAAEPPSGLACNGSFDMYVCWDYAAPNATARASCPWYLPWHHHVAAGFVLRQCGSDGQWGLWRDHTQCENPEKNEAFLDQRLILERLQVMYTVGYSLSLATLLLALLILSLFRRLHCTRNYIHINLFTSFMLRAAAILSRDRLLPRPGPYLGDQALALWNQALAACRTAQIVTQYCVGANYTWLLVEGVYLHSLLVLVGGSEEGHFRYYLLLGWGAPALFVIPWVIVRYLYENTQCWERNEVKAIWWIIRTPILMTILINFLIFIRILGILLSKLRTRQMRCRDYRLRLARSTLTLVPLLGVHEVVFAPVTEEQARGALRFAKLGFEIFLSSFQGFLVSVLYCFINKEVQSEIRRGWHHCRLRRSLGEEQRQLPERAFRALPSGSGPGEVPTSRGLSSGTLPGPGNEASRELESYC
How it was run: as §1

[3] = target: T3, hNPY2R (Homo sapiens, UniProt P49146); assay: hNPY2R CreLuc reporter gene assay in 0.5% and 100% plasma
T3 construct: expressed in transfected cells; host or cells: HEK-293 cells carrying a CRE-luciferase reporter gene
T3 sequence (P49146 1-381): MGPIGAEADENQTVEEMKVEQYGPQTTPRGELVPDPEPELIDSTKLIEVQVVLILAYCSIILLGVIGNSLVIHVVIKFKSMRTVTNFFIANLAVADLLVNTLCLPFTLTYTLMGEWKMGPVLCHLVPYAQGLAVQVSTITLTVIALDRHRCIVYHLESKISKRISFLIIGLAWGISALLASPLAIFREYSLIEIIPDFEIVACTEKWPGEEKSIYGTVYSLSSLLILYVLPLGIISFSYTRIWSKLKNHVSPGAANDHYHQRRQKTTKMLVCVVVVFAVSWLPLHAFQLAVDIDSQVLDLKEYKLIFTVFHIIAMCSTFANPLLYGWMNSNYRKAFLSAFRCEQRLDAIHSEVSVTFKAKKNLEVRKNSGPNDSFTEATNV
How it was run: as §1

[4] = CreLuc reporter gene assay, 0.5% human plasma, read-out: hGLP1R 0.5% hP
[5] = CreLuc reporter gene assay, 0.5% human plasma, read-out: hGIPR 0.5% hP
[6] = CreLuc reporter gene assay, 100% human plasma, read-out: hGIPR 100% hP
[7] = CreLuc reporter gene assay, 0.5% human plasma, read-out: hNPY2R 0.5% hP
[8] = CreLuc reporter gene assay, 100% human plasma, read-out: hNPY2R 100% hP
[9] = CreLuc reporter gene assay, 100% human plasma, read-out: hGLP1R 100% hP

## H-Y[Aib]EGTFTSDYSI[Aib]LEKQAQ[Aib]AFVEWLIK([εLys-γGlu-γGlu-γGlu-γGlu-γGlu-γGlu-C20 diacid])GGPSSGES[Aib]RHYYNWLTRQRY-NH2 [Compound 49, Y-Aib-E-G-T-F-T-S-D-Y-S-I-Aib-L-E-K-Q-A-Q-Aib-A-F-V-E-W-L-I-K(1,3)-G-G-P-S-S-G-E-S-Aib-R-H-Y-Y-N-W-L-T-R-Q-R-Y-NH2.C20DA-gGlu-gGlu-gGlu-gGlu-gGlu-gGlu-eLys(1,2)]
[1]; [4]
  EC50: 0.12 nM
[2]; [5]
  EC50: 0.07 nM
[2]; [6]
  EC50: 1.25 nM
[3]; [7]
  EC50: 12.5 nM
[3]; [8]
  EC50: 36.8 nM

## H-Y[Aib]EGTFTSDYSI[Aib]LEKEAQ[Aib]KFVEWLIK([εLys-γGlu-γGlu-γGlu-γGlu-γGlu-γGlu-C20 diacid])GGPSSGASLRHYYNWLTRQRY-NH2 [Compound 46, Y-Aib-E-G-T-F-T-S-D-Y-S-I-Aib-L-E-K-E-A-Q-Aib-K-F-V-E-W-L-I-K(1,3)-GGPSSGASLRHYYNWLTRQRY-NH2.C20DA-gGlu-gGlu-gGlu-gGlu-gGlu-gGlu-eLys(1,2)]
[1]; [4]
  EC50: 0.21 nM
[2]; [5]
  EC50: 0.2 nM
[2]; [6]
  EC50: 1.21 nM
[3]; [7]
  EC50: 10.2 nM
[3]; [8]
  EC50: 36 nM

## H-Y[Aib]EGTFTSDYSI[Aib]LEEQAQ[Aib]AFVEWLIK([εLys-AEEA-γGlu-γGlu-γGlu-γGlu-γGlu-C20 diacid])GGPSSGASLRHYYNWLTRQRY-NH2 [Compound 110, Y-Aib-E-G-T-F-T-S-D-Y-S-I-Aib-L-E-E-Q-A-Q-Aib-A-F-V-E-W-L-I-K(1,3)-GGPSSGASLRHYYNWLTRQRY-NH2.C20DA-gGlu-gGlu-gGlu-gGlu-gGlu-OEG-eLys(1,2)]
[1]; [4]
  EC50: 0.15 nM
[2]; [5]
  EC50: 0.15 nM
[2]; [6]
  EC50: 1.14 nM
[3]; [7]
  EC50: 17.5 nM

## H-Y[Aib]EGTFTSDYSI[Aib]LEKQAQ[Aib]AFVEWLIK([εLys-γGlu-γGlu-γGlu-γGlu-γGlu-γGlu-C20 diacid])GGPSEGASLRHYYNWLTR[β3hQ]RY-NH2 [Compound 277, Y-Aib-E-G-T-F-T-S-D-Y-S-I-Aib-L-E-K-Q-A-Q-Aib-A-F-V-E-W-L-I-K(1,3)-G-G-P-S-E-G-A-S-L-R-H-Y-Y-N-W-L-T-R-bHGln-R-Y-NH2.C20DA-gGlu-gGlu-gGlu-gGlu-gGlu-gGlu-eLys(1,2)]
[1]; [4]
  EC50: 0.19 nM
[2]; [5]
  EC50: 0.11 nM
[2]; [6]
  EC50: 0.68 nM
[3]; [7]
  EC50: > 99.9 nM

## H-Y[Aib]EGTFTSDYSI[Aib]LEKQAQ[Aib]AFVEWLIK([εLys-γGlu-γGlu-γGlu-γGlu-γGlu-γGlu-C20 diacid])GGPSSGASVRHYYNWLTRQRY-NH2 [Compound 117, Y-Aib-E-G-T-F-T-S-D-Y-S-I-Aib-L-E-K-Q-A-Q-Aib-A-F-V-E-W-L-I-K(1,3)-GGPSSGASVRHYYNWLTRQRY-NH2.C20DA-gGlu-gGlu-gGlu-gGlu-gGlu-gGlu-eLys(1,2)]
[1]; [4]
  EC50: 0.13 nM
[2]; [5]
  EC50: 0.14 nM
[2]; [6]
  EC50: 1.18 nM
[3]; [8]
  EC50: 24.6 nM

## H-Y[Aib]EGTFTSDYSI[Aib]LEKQAQ[Aib]AFVEWLIK([εLys-γGlu-γGlu-γGlu-γGlu-γGlu-γGlu-C20 diacid])GGPSEGASLRHYYNWLTRQ[NMeR]Y-NH2 [Compound 236, Y-Aib-E-G-T-F-T-S-D-Y-S-I-Aib-L-E-K-Q-A-Q-Aib-A-F-V-E-W-L-I-K(1,3)-G-G-P-S-E-G-A-S-L-R-H-Y-Y-N-W-L-T-R-Q-NMeR-Y-NH2.C20DA-gGlu-gGlu-gGlu-gGlu-gGlu-gGlu-eLys(1,2)]
[1]; [4]
  EC50: 0.26 nM
[2]; [5]
  EC50: 0.3 nM
[3]; [7]
  EC50: 31 nM

## H-Y[Aib]EGTFTSDYSI[Aib]LEKQAQ[Aib]EFVQWLIK([εLys-γGlu-γGlu-γGlu-γGlu-γGlu-γGlu-C18 diacid])GGPSEGASLRHYYNWLTRQRY-NH2 [Compound 153, Y-Aib-E-G-T-F-T-S-D-Y-S-I-Aib-L-E-K-Q-A-Q-Aib-E-F-V-Q-W-L-I-K(1,3)-GGPSEGASLRHYYNWLTRQRY-NH2.C18DA-gGlu-gGlu-gGlu-gGlu-gGlu-gGlu-eLys(1,2)]
[1]; [4]
  EC50: 0.25 nM
[2]; [5]
  EC50: 0.22 nM
[2]; [6]
  EC50: 1.21 nM
[3]; [7]
  EC50: 18.9 nM
[3]; [8]
  EC50: 58.5 nM

## H-Y[Aib]EGTFTSDYSI[Aib]LEEQAQ[Aib]AFVEWLIK([εLys-γGlu-γGlu-γGlu-γGlu-C20 diacid])GGPSSGASLRHYYNWLTRQRY-NH2 [Compound 97, Y-Aib-E-G-T-F-T-S-D-Y-S-I-Aib-L-E-E-Q-A-Q-Aib-A-F-V-E-W-L-I-K(1,3)-GGPSSGASLRHYYNWLTRQRY-NH2.C20DA-gGlu-gGlu-gGlu-gGlu-eLys(1,2)]
[1]; [4]
  EC50: 0.15 nM
[2]; [5]
  EC50: 0.14 nM
[2]; [6]
  EC50: 0.95 nM
[3]; [7]
  EC50: 14.9 nM
[3]; [8]
  EC50: 70.4 nM

## H-Y[Aib]EGTFTSDYSI[Aib]LEKQAQ[Aib]AFVQWLIK([AEEA-AEEA-γGlu-γGlu-γGlu-γGlu-γGlu-C20 diacid])GGPSSGASLRHYYNWLTRQRY-NH2 [Compound 112, Y-Aib-E-G-T-F-T-S-D-Y-S-I-Aib-L-E-K-Q-A-Q-Aib-A-F-V-Q-W-L-I-K(1,3)-GGPSSGASLRHYYNWLTRQRY-NH2.C20DA-gGlu-gGlu-gGlu-gGlu-gGlu-OEG-OEG(1,2)]
[1]; [4]
  EC50: 0.06 nM
[1]; [9]
  EC50: 1.7 nM
[2]; [5]
  EC50: 0.19 nM
[2]; [6]
  EC50: 0.83 nM
[3]; [8]
  EC50: 27.6 nM

## CC[C@H](C)[C@H](NC(=O)[C@H](CC(C)C)NC(=O)[C@H](Cc1c[nH]c2ccccc12)NC(=O)[C@H](CCC(=O)O)NC(=O)[C@@H](NC(=O)[C@H](Cc1ccccc1)NC(=O)[C@H](C)NC(=O)C(C)(C)NC(=O)[C@H](CCC(N)=O)NC(=O)[C@H](C)NC(=O)[C@H](CCC(N)=O)NC(=O)[C@H](CCCCN)NC(=O)[C@H](CCC(=O)O)NC(=O)[C@H](CC(C)C)NC(=O)C(C)(C)NC(=O)[C@@H](NC(=O)[C@H](CO)NC(=O)[C@H](Cc1ccc(O)cc1)NC(=O)[C@H](CC(=O)O)NC(=O)[C@H](CO)NC(=O)[C@@H](NC(=O)[C@H](Cc1ccccc1)NC(=O)[C@@H](NC(=O)CNC(=O)[C@H](CC(=O)O)NC(=O)C(C)(C)NC(=O)[C@@H](N)Cc1ccc(O)cc1)[C@@H](C)O)[C@@H](C)O)[C@@H](C)CC)C(C)C)C(=O)N[C@@H](CCCCNC(=O)[C@@H](N)CCCCNC(=O)CC[C@H](NC(=O)CC[C@H](NC(=O)CC[C@H](NC(=O)CC[C@H](NC(=O)CC[C@H](NC(=O)CC[C@H](NC(=O)CCCCCCCCCCCCCCCCCCC(=O)O)C(=O)O)C(=O)O)C(=O)O)C(=O)O)C(=O)O)C(=O)O)C(=O)NCC(=O)NCC(=O)N1CCC[C@H]1C(=O)N[C@@H](CO)C(=O)N[C@@H](CO)C(=O)NCC(=O)N[C@@H](C)C(=O)N[C@@H](CO)C(=O)N[C@@H](CC(C)C)C(=O)N[C@@H](CCCNC(=N)N)C(=O)N[C@@H](Cc1c[nH]cn1)C(=O)N[C@@H](Cc1ccc(O)cc1)C(=O)N[C@@H](Cc1ccc(O)cc1)C(=O)N[C@@H](CC(N)=O)C(=O)N[C@@H](Cc1c[nH]c2ccccc12)C(=O)N[C@@H](CC(C)C)C(=O)N[C@H](C(=O)N[C@@H](CCCNC(=N)N)C(=O)N[C@@H](CCC(N)=O)C(=O)N[C@@H](CCCNC(=N)N)C(=O)N[C@@H](Cc1ccc(O)cc1)C(N)=O)[C@@H](C)O [Compound 87, Y-Aib-D-G-T-F-T-S-D-Y-S-I-Aib-L-E-K-Q-A-Q-Aib-A-F-V-E-W-L-I-K(1,3)-GGPSSGASLRHYYNWLTRQRY-NH2.C20DA-gGlu-gGlu-gGlu-gGlu-gGlu-gGlu-eLys(1,2)]
[1]; hGLP1R 0.5% hP
  EC50: 0.08 nM
[1]; hGLP1R 100% hP
  EC50: 2 nM
[2]; hGIPR 0.5% hP
  EC50: 0.58 nM
[3]; hNPY2R 0.5% hP
  EC50: 20.7 nM

## H-Y[Aib]EGTFTSDYSI[Aib]LEKQAQ[Aib]AFVQWLIK([AEEA-AEEA-γGlu-γGlu-γGlu-γGlu-γGlu-C18 diacid])GGPESGASLRHYYNWLTRQRY-NH2 [Compound 55, Y-Aib-E-G-T-F-T-S-D-Y-S-I-Aib-L-E-K-Q-A-Q-Aib-A-F-V-Q-W-L-I-K(1,3)-GGPESGASLRHYYNWLTRQRY-NH2.C18DA-gGlu-gGlu-glu-gGlu-gGlu-OEG-OEG(1,2)]
[1]; [4]
  EC50: 0.09 nM
[1]; [9]
  EC50: 4.17 nM
[2]; [5]
  EC50: 0.12 nM
[3]; [8]
  EC50: 53.4 nM
